A word on the IC50: it is the concentration that inhibits the measured activity by half.

Consider six compounds from patent US9249125B2, “Pyrazole derivatives as p38 MAP inhibitors” (RESPIVERT LIMITED, priority 2012, dated 2016).

One series concerns the target cSrc (Homo sapiens (Human), UniProt P12931). Briefly: c-Src enzyme inhibition (FRET, Z-LYTE). Format: biochemical. A digest of the protocol:
(§1)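 Z-LYTE FRET kinase assay: enzyme (3000 or 2000 ng/mL stock, respectively) preincubated 2 h at RT with compound (4–0.004 μg/mL stocks), then FRET peptide plus ATP (800 μM stock for c-Src, 60 μM for Syk) added for 1 h. Protease development 1 h; phosphorylation from coumarin/fluorescein emission ratio.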

In the next series the target is p38 MAPKα (Homo sapiens (Human), UniProt Q16539). Briefly: p38 MAPKα enzyme inhibition (FRET, Z-LYTE). Format: biochemical.
Sequence of p38 MAPKα (Q16539 whole entry): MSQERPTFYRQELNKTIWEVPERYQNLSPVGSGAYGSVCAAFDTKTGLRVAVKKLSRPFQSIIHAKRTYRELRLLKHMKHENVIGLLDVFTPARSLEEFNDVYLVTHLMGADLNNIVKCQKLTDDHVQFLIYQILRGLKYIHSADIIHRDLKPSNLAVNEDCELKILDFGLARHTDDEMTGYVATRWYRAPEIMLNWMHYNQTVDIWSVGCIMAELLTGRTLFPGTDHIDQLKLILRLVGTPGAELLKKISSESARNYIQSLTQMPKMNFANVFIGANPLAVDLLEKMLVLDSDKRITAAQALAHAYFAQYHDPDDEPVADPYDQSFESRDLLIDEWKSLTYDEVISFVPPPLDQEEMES
Series [1] deals with LPS-induced IL-8 release in d-U937 cells. Briefly: LPS-induced IL-8 release in d-U937 cells. To be noted: Homo sapiens, dU937, read-out: LPS Induced Release of Cytokine in d-937 Cells IL-8 IC50. Format: cell-based. The essentials: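 Read-out: TNFα and IL-8 released into supernatant, sandwich ELISA, expressed as inhibition versus vehicle at each dose and fitted to give REC50. Cells were PMA-differentiated U937 (100 ng/mL, 48–72 hr), compound-exposed 2 hr before a 4 hr LPS stimulus (0.1 μg/mL).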

Series [2] concerns Poly I:C-induced ICAM-1 expression in BEAS2B cells. The series can be described thus: Poly I:C-induced ICAM-1 expression in BEAS2B cells. The class given is cell-based. To be noted: Homo sapiens, BEAS-2B, read-out: Poly IC induced ICAM1 in BEAS2B IC50. A digest of the protocol:
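Cell-based ELISA read at 450 nm minus 655 nm, divided by crystal violet OD595 to normalize for cell number, gave ICAM-1 levels. Readout was taken 18 hr after poly I:C (1 μg/mL, Oligofectamine) transfection of human bronchial BEAS2B cells pretreated 2 hr with test compound.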

For a further series, the target named is Syk (Homo sapiens (Human), UniProt P43405). The series can be described thus: Syk enzyme inhibition (FRET, Z-LYTE). Format: biochemical. The essentials:
as §1

For a further series, the system named is HRV16. Briefly: HRV16 induced CPE in MRC5 cells. The class given is cell-based, human rhinovirus. The following applies: for HRV induced CPE in MRC5 Cells % Inhibition Observed: screened at concentrations up to 0.32 ng/mL. How it is done:
The supernatants are aspirated, and then fresh media added followed by incubation for 4 days. Where appropriate, cells are pre-incubated with compound or DMSO for 2 hr, and the compounds and DMSO added again after washout of the virus.
Supernatants are aspirated and incubated with methylene blue solution (100 μL, 2% formaldehyde, 10% methanol and 0.175% Methylene Blue) for 2 hr at RT. […] The percentage inhibition for each well is calculated. The IC50 value is calculated from the concentration-response curve generated by the serial dilutions of the test compounds.

The test system of another series is d-U937 cells. The series can be described thus: Cell viability: MTT assay. The class given is cell-based, human. To be noted: 1 μg/mL. The essentials: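 MTT read-out (1 h, absorbance 550 nm) on d-U937 cells after pre-incubation with 1 or 10 μg/mL compound under two regimes: 4 h, 5% FCS, or 24 h, 10% FCS RPMI1640. Values are percent loss of viability relative to vehicle (0.5% DMSO), so increases are reported as negative.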
On the technique in general: Formazan colour is commonly taken as a measure of viable cells.

The next series deals with GSK3α (Homo sapiens (Human), UniProt P49840). The series can be described thus: GSK 3α enzyme inhibition (FRET, Z-LYTE). Format: biochemical. The essentials:
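Phosphorylation was read as the donor (coumarin) to acceptor (fluorescein) ratio after a 1 hr protease step destroying non-phosphorylated peptide. Before this, compound (4–0.004 μg/mL stocks) sat 2 hr at RT with GSK3α (500 ng/mL stock), followed by 1 hr kinase reaction with 8 μM peptide and 40 μM ATP stocks.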

The test system of series [3] is LPS-induced TNFα release in d-U937 cells. Briefly: LPS-induced TNFα release in d-U937 cells. The class given is cell-based. The following applies: Homo sapiens, dU937, relative to 10 μg/mL BIRB796, read-out: LPS Induced Release of Cytokine in d-937 Cells TNFα REC50. The essentials:
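Human monocytic U937 cells were differentiated to macrophage-type cells with PMA (100 ng/mL) for 48 to 72 hr, pre-treated with test compound for 2 hr, then stimulated 4 hr with E. coli O111:B4 LPS (0.1 μg/mL). Supernatant TNFα and IL-8 were measured by sandwich ELISA; REC50 came from concentration-response curves.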

Series [4] deals with LPS-induced airways neutrophilia in mice. Briefly: LPS-induced neutrophil accumulation in mice. Format: in vivo. To be noted: Test Substance at 0.2 mg/mL, intra tracheal, dosed 8 hr pre-LPS challenge. How it is done: Non-fasted Balb/c mice are dosed by the intra tracheal route with either vehicle, or the test substance at the indicated times (within the range 2-8 hr) before stimulation of the inflammatory response by application of an LPS challenge. At T=0, mice are placed into an exposure chamber and exposed to LPS (7.0 mL, 0.5 mg/mL solution in PBS) for 30 min). After a further 8 hr the animals are anesthetized, their tracheas cannulated and BALF extracted by infusing and then withdrawing from their lungs 1.0 mL of PBS via the tracheal catheter. Total and differential white cell counts in the BALF samples are measured using a Neubaur haemocytometer. Cytospin smears of the BALF samples are prepared by centrifugation at 200 rpm for 5 min at RT and stained using a DiffQuik stain system (Dade Behring). Cells are counted using oil immersion microscopy. Data for neutrophil numbers in BAL are shown as mean±S.E.M. (standard error of the mean). The percentage inhibition of neutrophil accumulation is calculated for each treatment relative to vehicle treatment.

Sequence of GSK3α (P49840 whole entry): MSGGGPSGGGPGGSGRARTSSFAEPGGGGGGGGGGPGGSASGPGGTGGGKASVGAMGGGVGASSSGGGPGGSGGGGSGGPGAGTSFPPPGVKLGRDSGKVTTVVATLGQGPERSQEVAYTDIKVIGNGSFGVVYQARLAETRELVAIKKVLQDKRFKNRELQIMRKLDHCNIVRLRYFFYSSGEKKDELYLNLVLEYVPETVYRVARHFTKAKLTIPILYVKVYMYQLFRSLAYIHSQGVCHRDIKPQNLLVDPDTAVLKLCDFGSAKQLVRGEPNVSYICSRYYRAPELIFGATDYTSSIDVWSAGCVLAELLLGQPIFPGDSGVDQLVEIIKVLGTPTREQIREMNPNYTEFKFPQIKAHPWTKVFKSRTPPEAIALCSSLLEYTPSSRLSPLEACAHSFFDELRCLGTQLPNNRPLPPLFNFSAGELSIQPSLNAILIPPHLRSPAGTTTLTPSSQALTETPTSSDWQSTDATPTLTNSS
Sequence of cSrc (P12931 whole entry, looked up): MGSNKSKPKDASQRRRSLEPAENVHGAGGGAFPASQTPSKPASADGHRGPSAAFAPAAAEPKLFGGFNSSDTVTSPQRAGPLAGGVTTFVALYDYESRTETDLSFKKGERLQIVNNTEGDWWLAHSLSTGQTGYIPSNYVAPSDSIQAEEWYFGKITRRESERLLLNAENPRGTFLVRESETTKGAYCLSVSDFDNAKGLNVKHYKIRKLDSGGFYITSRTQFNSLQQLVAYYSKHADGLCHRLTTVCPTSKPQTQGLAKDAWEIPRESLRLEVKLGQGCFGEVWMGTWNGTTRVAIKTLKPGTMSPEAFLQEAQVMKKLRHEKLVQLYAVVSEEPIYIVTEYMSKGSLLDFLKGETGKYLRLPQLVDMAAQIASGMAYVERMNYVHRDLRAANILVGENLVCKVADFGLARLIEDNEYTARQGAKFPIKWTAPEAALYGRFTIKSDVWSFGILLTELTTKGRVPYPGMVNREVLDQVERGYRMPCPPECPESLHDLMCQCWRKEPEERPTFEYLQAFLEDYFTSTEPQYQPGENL

With `CC(C)(C)c1cc(NC(=O)Nc2ccc(Oc3ccnc(Nc4ccc5[nH]ncc5c4)n3)c3ccccc23)n(-c2ccc(OCCN3CCOCC3)nc2)n1` [Example 15, 1-(4-((2-((1H-Indazol-5-yl)amino)pyrimidin-4-yl)oxy)naphthalen-1-yl)-3-(3-(tert-butyl)-1-(6-(2-morpholinoethoxy)pyridin-3-yl)-1H-pyrazol-5-yl)urea], the IC50 on cSrc is less than 1 nM; at p38 MAPKα, 22 nM; in series [1] it was 1.6 nM; in series [2] it was 2.1 nM; at Syk it was 7 nM; against GSK3α it was 1420 nM. Besides, the “HRV induced CPE in MRC5 Cells % Inhibition Observed” value in the series on HRV16 is given as 56%. For the same compound, the “MTT Assay Cell viability at time point in d-U937 cells 4 h” value in the series with d-U937 cells was “−ve (−ve and +ve indicate that the value is below and above respectively, the no significant effect threshold, defined as 30% inhibition at 1 μg/mL at the time point indicated.)”. Further, the “MTT Assay Cell viability at time point in d-U937 cells 24 h” value in the series on d-U937 cells is “−ve (−ve and +ve indicate that the value is below and above respectively, the no significant effect threshold, defined as 30% inhibition at 1 μg/mL at the time point indicated.)”. In series [3], the EC50 was found to be 1.6 nM.

Take `CC(C)(C)c1cc(NC(=O)Nc2ccc(Oc3ccnc(Nc4ccc5[nH]ncc5c4)n3)c3ccccc23)n(-c2cccc(OCCN3CCOCC3)c2)n1` [Example 54, 1-(4-((2-((1H-indazol-5-yl)amino)pyrimidin-4-yl)oxy)naphthalen-1-yl)-3-(3-(tert-butyl)-1-(3-(2-morpholinoethoxy)phenyl)-1H-pyrazol-5-yl)urea]: the IC50 against cSrc was found to be 7 nM; at p38 MAPKα, 11 nM; in series [1], 24.8 nM; in series [2], 10.3 nM; on Syk it was 9 nM; in the series on HRV16 (Human rhinovirus sp., HRV16, MRC5, read-out: HRV induced CPE in MRC5 Cells IC50), 0.4 nM. The same compound had an IC50 against GSK3α of 1980 nM. In addition, the “MTT Assay Cell viability at time point in d-U937 cells 4 h” value with d-U937 cells is “−ve (−ve and +ve indicate that the value is below and above respectively, the no significant effect threshold, defined as 30% inhibition at 1 μg/mL at the time point indicated.)”. The “MTT Assay Cell viability at time point in d-U937 cells 24 h” value with d-U937 cells was “−ve (−ve and +ve indicate that the value is below and above respectively, the no significant effect threshold, defined as 30% inhibition at 1 μg/mL at the time point indicated.)”. In [3], the EC50 was found to be 8.7 nM.

As to `Cc1ccc(-n2nc(C(C)(C)C)cc2NC(=O)Nc2ccc(Oc3ccnc(Nc4ccc5onc(N)c5c4)n3)c3ccccc23)cc1` [Example 5, 1-(4-((2-((3-Aminobenzo[d]isoxazol-5-yl)amino)pyrimidin-4-yl)oxy)naphthalen-1-yl)-3-(3-(tert-butyl)-1-(p-tolyl)-1H-pyrazol-5-yl)urea], the IC50 is more than 1560 nM on cSrc; 81 nM on p38 MAPKα; 1.7 nM in series [1]; 0.6 nM in [2]; 49 nM against Syk; more than 1560 nM on GSK3α. Further, the “HRV induced CPE in MRC5 Cells % Inhibition Observed” value with HRV16 was determined as 100%. Further, the “MTT Assay Cell viability at time point in d-U937 cells 4 h” value in the series on d-U937 cells is “−ve (−ve and +ve indicate that the value is below and above respectively, the no significant effect threshold, defined as 30% inhibition at 1 μg/mL at the time point indicated.)”. The “MTT Assay Cell viability at time point in d-U937 cells 24 h” value in the series with d-U937 cells is “−ve (−ve and +ve indicate that the value is below and above respectively, the no significant effect threshold, defined as 30% inhibition at 1 μg/mL at the time point indicated.)”. In series [3], the EC50 was determined as 1.1 nM.

In the case of `Cc1ccc(-n2nc(C(C)(C)C)cc2NC(=O)Nc2ccc(Oc3ccnc(Nc4ccc5c(c4)NC(=O)C5)n3)c3ccccc23)cc1` [Example 2, 1-(3-(tert-Butyl)-1-(p-tolyl)-1H-pyrazol-5-yl)-3-(4-((2-((2-oxoindolin-6-yl)amino)pyrimidin-4-yl)oxy)naphthalen-1-yl)urea], the IC50 was 4 nM against cSrc; 93 nM on p38 MAPKα; 1.7 nM in series [1]; 1.4 nM in series [2]; 18 nM against Syk; more than 15600 nM at GSK3α. The “HRV induced CPE in MRC5 Cells % Inhibition Observed” value with HRV16 was found to be 89%. In the series on d-U937 cells, the “MTT Assay Cell viability at time point in d-U937 cells 4 h” value is “−ve (−ve and +ve indicate that the value is below and above respectively, the no significant effect threshold, defined as 30% inhibition at 1 μg/mL at the time point indicated.)”. In addition, the “MTT Assay Cell viability at time point in d-U937 cells 24 h” value in the series on d-U937 cells was “−ve (−ve and +ve indicate that the value is below and above respectively, the no significant effect threshold, defined as 30% inhibition at 1 μg/mL at the time point indicated.)”. Moreover, the EC50 in series [3] came to 1.4 nM.

In the case of `COc1ccc(-n2nc(C(C)(C)C)cc2NC(=O)Nc2ccc(Oc3ccnc(Nc4ccc5[nH]ncc5c4)n3)c3ccccc23)cn1` [Example 13, 1-(4-((2-((1H-Indazol-5-yl)amino)pyrimidin-4-yl)oxy)naphthalen-1-yl)-3-(3-(tert-butyl)-1-(6-methoxypyridin-3-yl)-1H-pyrazol-5-yl)urea], the IC50 against cSrc is 3 nM; at p38 MAPKα it was 30 nM; in [1], 0.5 nM; in series [2], 2.4 nM; against Syk, 8 nM; at GSK3α it was more than 1560 nM. The “MTT Assay Cell viability at time point in d-U937 cells 4 h” value in the series on d-U937 cells is “−ve (−ve and +ve indicate that the value is below and above respectively, the no significant effect threshold, defined as 30% inhibition at 1 μg/mL at the time point indicated.)”. The “MTT Assay Cell viability at time point in d-U937 cells 24 h” value in the series on d-U937 cells is “−ve (−ve and +ve indicate that the value is below and above respectively, the no significant effect threshold, defined as 30% inhibition at 1 μg/mL at the time point indicated.)”. The “% Inhibition of neutrophil accumulation in BAL” value in [4] amounted to 50%. The “Neutrophil numbers in BAL (+/−SEM)” value in [4] is recorded as 8.5 ± 1.4 ×10^5/mL. Besides, the EC50 in [3] is 1.6 nM.

In the case of `CC(C)(C)c1cc(NC(=O)Nc2ccc(Oc3ccnc(Nc4ccc5[nH]ncc5c4)n3)c3ccccc23)n(-c2ccc(=O)n(CCN3CCOCC3)c2)n1` [Example 88, 1-(4-((2-((1H-indazol-5-yl)amino)pyrimidin-4-yl)oxy)naphthalen-1-yl)-3-(3-(tert-butyl)-1-(1-(2-morpholinoethyl)-6-oxo-1,6-dihydropyridin-3-yl)-1H-pyrazol-5-yl)urea], the IC50 against cSrc was determined as 3 nM; against p38 MAPKα, 32 nM; in [1], 153 nM; in series [2], 35.9 nM; against Syk, 10 nM; at GSK3α, 2430 nM. For the same compound, the “HRV induced CPE in MRC5 Cells % Inhibition Observed” value in the series with HRV16 was determined as 75%. The “MTT Assay Cell viability at time point in d-U937 cells 4 h” value in the series with d-U937 cells was “−ve (−ve and +ve indicate that the value is below and above respectively, the no significant effect threshold, defined as 30% inhibition at 1 μg/mL at the time point indicated.)”. For the same compound, the “MTT Assay Cell viability at time point in d-U937 cells 24 h” value in the series with d-U937 cells is “−ve (−ve and +ve indicate that the value is below and above respectively, the no significant effect threshold, defined as 30% inhibition at 1 μg/mL at the time point indicated.)”. In series [3], the EC50 amounted to 18.8 nM.
